Test results taken from US10899764B2, “Imidazo isoindole derivative, preparation method therefor and medical use thereof” (Jiangsu Hengrui Medicine Co., Ltd., priority 2015, dated 2021).
Counter-ions that a name gives are not always drawn. Like-named read-outs stand apart in the source and are kept apart here.

Columns and labels:
human IDO1 = human IDO1 (Homo sapiens (Human), UniProt P14902); experiment: Inhibition activity on human IDO1 (enzyme assay, absorbance at 480 nm); assay type: biochemical; settings: read-out: IC50 for inhibiting the activity of human IDO1
Sequence of human IDO1 (P14902 whole entry): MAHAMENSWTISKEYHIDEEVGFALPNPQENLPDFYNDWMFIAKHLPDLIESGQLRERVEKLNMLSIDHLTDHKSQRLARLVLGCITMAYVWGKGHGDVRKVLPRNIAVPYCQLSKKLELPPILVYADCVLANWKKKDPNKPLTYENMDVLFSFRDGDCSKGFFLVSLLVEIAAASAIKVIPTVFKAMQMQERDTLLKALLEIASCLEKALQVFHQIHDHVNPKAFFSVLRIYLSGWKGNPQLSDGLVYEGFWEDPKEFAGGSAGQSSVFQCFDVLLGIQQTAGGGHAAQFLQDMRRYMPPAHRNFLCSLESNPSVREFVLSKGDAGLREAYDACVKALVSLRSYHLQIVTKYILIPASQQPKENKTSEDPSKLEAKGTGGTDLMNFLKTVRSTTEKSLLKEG
Description: Assay for Determining the Inhibition Activity of the Present Compounds on Human IDO1
Human IDO1 activity was tested in vitro by the following method.
This method is used to determine the inhibition effect of the compounds of the present invention on the activity of human IDO1.
The human IDO1 gene was transferred to Pet30a plasmid by gene cloning, and then transferred to competent Escherichia coli Rosseta. The IDO1 gene was scaled-up by culturing in liquid LB (Luria-Bertani) medium [which was prepared per liter according to “Molecular Cloning A Laboratory Manual” (J. Sambrook, D. W. Russell)]). The bacteria were collected and lysed by ultrasonic waves. The purified IDO1 was obtained by eluting from a column.
For testing, 24 μL of enzyme (IDO1) was diluted 100 times with 50 mM KPB to 2400 μL. The concentration of the enzyme solution was 2.6 ng/μL. A 96 well reaction plate (AXYGEN, PCR-96-FLT-C) (hereinafter referred to as the “reaction plate”) was added with the enzyme solution at 24 μL/well. The blank well was added with 24 μL of KPB [Preparation of KPB buffer (50 mM): 6.805 g of KH2PO4 was weighed using an analytical balance, and placed into a 1000 mL beaker, deionized water was added with a measuring cylinder to 900 ml, the pH was adjusted to 6.5 by 1M KOH, then the mixture was introduced into a 1 L measuring cylinder, and water was added to 1 L. It was stored at 4° C.]. Then, 1 μL of a compound or DMSO was added into the corresponding wells in the reaction plate. Preparation of solution A: 200 μL of 500 mM L-sodium ascorbate were added with 1050 μL of KPB, then the mixture was mixed uniformly for 3 seconds at the maximum speed in a turbine mixer. Solution B: 100 μL of 10 mM tryptophan were added with 100 μL of 100,000 unit/mL catalase, 5 μL of 10 mM methylene blue, and 1050 μL of KPB successively, then the mixture was mixed uniformly for 3 seconds at the maximum speed in a turbine mixer. Then, 1200 μL of solution A and 1200 μL of solution B were taken and mixed uniformly for 3 seconds at the maximum speed in a turbine mixer. The mixture was added to the reaction plate at 24 μL/well. The reaction plate was placed in a plate centrifuge and centrifuged for 15 seconds at the maximum speed, so that the reaction liquids converged to the bottom. The reaction mixture was mixed uniformly for 30 seconds on a shaker, and incubated for 1 hour at 37° C. in a constant temperature incubator. In the reaction plate, 30% (W/V) trichloroacetic acid was added at 10 μL/well, then the mixture was incubated for 15 minutes at 65° C. in an incubator. The reaction plate was centrifuged in a centrifuge for 5 minutes at 4700 RPM at room temperature. […] Then, 2% (W/V) 4-(dimethylamino)benzaldehyde/glacial acetic acid solution was added at 40 μL/well, and the mixture was mixed uniformly for 1 minute on a shaker at the maximum speed. After incubation for 2 minutes at room temperature, the absorbance at 480 nm was read on a Synergy HT (BIOTEK) reader.
The inhibition activity of the compounds of the present invention on human IDO1 was tested by the assay described above.

human TDO = human TDO (Homo sapiens (Human), UniProt P48775); experiment: Inhibition activity on human TDO (tryptophan 2,3-dioxygenase) (enzyme assay, absorbance at 480 nm); assay type: biochemical; settings: read-out: IC50 for inhibiting the activity of human TDO
Sequence of human TDO (P48775 whole entry): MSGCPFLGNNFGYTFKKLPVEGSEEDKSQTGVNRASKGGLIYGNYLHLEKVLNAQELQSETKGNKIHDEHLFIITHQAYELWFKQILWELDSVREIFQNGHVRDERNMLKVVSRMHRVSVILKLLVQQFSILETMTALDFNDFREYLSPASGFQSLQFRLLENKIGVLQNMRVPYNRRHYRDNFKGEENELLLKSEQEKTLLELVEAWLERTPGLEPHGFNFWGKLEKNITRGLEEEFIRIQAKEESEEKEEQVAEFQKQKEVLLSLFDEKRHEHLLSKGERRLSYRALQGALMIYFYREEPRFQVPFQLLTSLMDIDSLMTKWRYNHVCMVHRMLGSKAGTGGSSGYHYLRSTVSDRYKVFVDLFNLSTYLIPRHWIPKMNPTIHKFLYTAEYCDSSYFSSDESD
Description: Assay for Determining the Inhibition activity of the Compounds of the Present Invention on Human TDO (tryptophan 2,3-dioxygenase)
Human TDO activity was tested in vitro by the following method.
This method is used to determine the inhibition effect of the compounds of the present invention on the activity of human TDO.
Plasmids constructed with the human TDO gene were transferred to competent Escherichia coli Rosseta. The TDO gene was scaled-up by culturing in liquid LB (Luria-Bertani) medium [which was prepared per liter according to “Molecular Cloning A Laboratory Manual” (J. Sambrook, D. W. Russell)]). The bacteria were collected and lysed by ultrasonic waves. The purified TDO was obtained by eluting from a column.
For testing, 24 μL of enzyme (TDO) was diluted 100 times with 50 mM KPB to 2400 μL. The concentration of the enzyme solution was 2.6 ng/μL. A 96 well reaction plate (AXYGEN, PCR-96-FLT-C) (hereinafter referred to as the “reaction plate”) was added with the enzyme solution at 24 μL/well. The blank well was added with 24 μL of KPB [Preparation of KPB buffer (50 mM): 6.805 g of KH2PO4 was weighed using an analytical balance, and placed into a 1000 mL beaker, deionized water was added with a measuring cylinder to 900 mL, the pH was adjusted to 6.5 by 1M KOH, then the mixture was introduced into a 1 L measuring cylinder, and water was added to 1 L. It was stored at 4° C.]. Then, 1 μL of a compound or DMSO was added into the corresponding wells in the reaction plate. Preparation of solution A: 200 μL of 500 mM L-sodium ascorbate was added with 1050 μL of KPB, then the mixture was mixed uniformly for 3 seconds at the maximum speed in a turbine mixer. Solution B: 100 μL of 10 mM tryptophan was added with 100 μL of 100,000 unit/ml catalase, 5 μL of 10 mM methylene blue, and 1050 μL of KPB successively, then the mixture was mixed uniformly for 3 seconds at the maximum speed in a turbine mixer. Then, 1200 μL of solution A and 1200 μL of solution B were taken and mixed uniformly for 3 seconds at the maximum speed in a turbine mixer. The mixture was added to the reaction plate at 24 μL/well. The reaction plate was placed in a plate centrifuge and centrifuged for 15 seconds at the maximum speed, so that the reaction liquids converged to the bottom. The reaction mixture was mixed uniformly for 30 seconds on a shaker, and incubated for 1 hour at 37° C. in a constant temperature incubator. In the reaction plate, 30% (W/V) trichloroacetic acid was added at 10 μL/well, then the mixture was incubated for 15 minutes at 65° C. in a incubator. The reaction plate was centrifuged in a centrifuge for 5 minutes at 4700 RPM at room temperature. […] Then, 2% (W/V) 4-(dimethylamino)benzaldehyde/glacial acetic acid solution was added at 40 μL/well, then the mixture was mixed uniformly for 1 minute on a shaker at the maximum speed. After incubation for 2 minutes at room temperature, the absorbance at 480 nm was read on a Synergy HT Reader.
The inhibition activity of the compounds of the present invention on human TDO was tested by the assay described above.

IDO in HeLa cells = IDO in HeLa cells (Homo sapiens (Human), UniProt P14902); experiment: Inhibition activity on IDO in HeLa cells (INF-γ induced); assay type: cell-based; settings: read-out: IC50 for inhibiting the activity of IDO in HeLa cells
Sequence of IDO in HeLa cells (P14902 whole entry): as the sequence (P14902 whole entry) above
Description: Assay for Determining the Inhibition Activity of the Present Compounds on IDO in HeLa Cells
IDO activity in HeLa cells was tested in vitro by the following method.
This method is used to determine the inhibition effect of the compounds of the present invention on the activity of IDO in HeLa cells. (Note: indoleamine 2,3-dioxygenase (IDO) is expressed in the HeLa cell line and induced by interferon gamma (INF-γ)).
The supernatant was removed, serum-free DMEM high glucose medium was added at 90 μL/well, then the compounds contained in the culture medium with INF-γ and tryptophan were added at 10 μL/well (the final concentrations: 10000, 1000, 100, 10, 1, 0.1 nM). […] Then, 80 μL of the supernate was transferred from the 96-well cell culture plate to a 96 well round-bottomed plate, then 30% (W/V) trichloroacetic acid was added at 16 μL/well, then the mixture was incubated for 25 minutes at 65° C. in an incubator. The reaction plate was centrifuged in a centrifuge for 5 minutes at 4700 RPM. Then, 50 μL of the supernatant was transferred from the reaction plate to a 96-well flat-bottomed transparent plate by a multi-channel pipette. Then, 2% (W/V) 4-(dimethylamino)benzaldehyde/glacial acetic acid solution was added at 50 μL/well, then the mixture was mixed uniformly for 1 minute on a shaker. After incubation for 2 minutes at room temperature, the absorbance at 480 nm was read on a Synergy HT Reader.
The inhibition activity of the compounds of the present invention on IDO in HeLa cells was tested by the assay described above.

[1] = purified recombinant human IDO1, 1 hour at 37° C.
[2] = purified recombinant human TDO, 1 hour at 37° C.
[3] = HeLa cells, INF-γ and tryptophan, 48 hours

Question: With `Fc1cccc2c1C(C1CCN(c3ccccc3)CC1)n1cncc1-2` (centres unmarked) [Example 1, 6-fluoro-5-(1-phenylpiperidin-4-yl)-5H-imidazo[5,1-a]isoindole trifluoroacetate] as the compound, how does the IC50 (human IDO1) read?
Answer: 87.4 nM

Question: And the IC50 (human TDO)?
Answer: 338 nM

Question: For `Fc1ccc2c(c1)C(C1CCN(c3ccccc3)CC1)n1cncc1-2` (centres unmarked) [Example 2, 7-fluoro-5-(1-phenylpiperidin-4-yl)-5H-imidazo[5,1-a]isoindole trifluoroacetate], which IC50 (human TDO) is on record?
Answer: 215 nM

Question: For `N#Cc1ccc(N2CCC(C3c4c(F)cccc4-c4cncn43)CC2)cc1` (centres unmarked) [Example 5, 4-(4-(6-fluoro-5H-imidazo[5,1-a]isoindol-5-yl)piperidin-1-yl)benzonitrile trifluoroacetate], which IC50 (human IDO1) is on record?
Answer: 81.2 nM

Question: What about the IC50 (human TDO) of the same compound?
Answer: 394 nM

Question: And the IC50 (IDO in HeLa cells)?
Answer: 353 nM

Question: Which IC50 (human TDO) does the source give for `NC(=O)c1ccc(N2CCC(C3c4c(F)cccc4-c4cncn43)CC2)cc1` (centres unmarked) [Example 6, 4-(4-(6-fluoro-5H-imidazo[5,1-a]isoindol-5-yl)piperidin-1-yl)benzamide trifluoroacetate] here?
Answer: 394 nM

Question: Which results are given for `Fc1cccc2c1C(C1CCN(c3ncc(-c4cnn(C5CCOCC5)c4)cn3)CC1)n1cncc1-2` (centres unmarked) [Example 18, 6-fluoro-5-(1-(5-(1-(tetrahydro-2H-pyran-4-yl)-1H-pyrazol-4-yl)pyrimidin-2-yl)piperidin-4-yl)-5H-imidazo[5,1-a]isoindole]?
Answer: IC50 (human IDO1; [1]): 34 nM; IC50 (human TDO; [2]): 361 nM; IC50 (IDO in HeLa cells; [3]): 198 nM

Question: Which results are given for `Fc1cccc2c1C(C1CCN(c3ncc(-c4ccccc4)s3)CC1)n1cncc1-2` (centres unmarked) [Example 23, 2-(4-(6-fluoro-5H-imidazo[5,1-a]isoindol-5-yl)piperidin-1-yl)-5-phenylthiazole trifluoroacetate]?
Answer: IC50 (human IDO1; [1]): 48.2 nM; IC50 (human TDO; [2]): 399 nM; IC50 (IDO in HeLa cells; [3]): 439 nM

Question: Which IC50 (human TDO) does the source give for `Fc1cccc2c1C(C1CCN(c3ccccc3)C1)n1cncc1-2` (centres unmarked) [Example 25, 6-fluoro-5-(1-phenylpyrrolidin-3-yl)-5H-imidazo[5,1-a]isoindole trifluoroacetate] here?
Answer: 257 nM

Question: With `OC[C@@H](O)Cn1cc(-c2ccc(N3CCC(C4c5c(F)cccc5-c5cncn54)CC3)cc2)cn1` (stereo partly drawn) [Example 29, (2S)-3-(4-(4-(4-(6-fluoro-5H-imidazo[5,1-a]isoindol-5-yl)piperidin-1-yl)phenyl)-1H-pyrazol-1-yl)propane-1,2-diol] as the compound, how does the IC50 (human IDO1; [1]) read?
Answer: 35.9 nM

Question: What about the IC50 (human TDO; [2]) of the same compound?
Answer: 220 nM

Question: And the IC50 (IDO in HeLa cells; [3])?
Answer: 292 nM

Question: How did the IC50 (human IDO1; [1]) turn out when `OC[C@H](O)Cn1cc(-c2ccc(N3CCC(C4c5c(F)cccc5-c5cncn54)CC3)cc2)cn1` (stereo partly drawn) [Example 30, (2R)-3-(4-(4-(4-(6-fluoro-5H-imidazo[5,1-a]isoindol-5-yl)piperidin-1-yl)phenyl)-1H-pyrazol-1-yl)propane-1,2-diol trifluoroacetate] was run?
Answer: 58.7 nM

Question: What about the IC50 (human TDO; [2]) of the same compound?
Answer: 319 nM

Question: And the IC50 (IDO in HeLa cells; [3])?
Answer: 334 nM

Question: How did the IC50 (human IDO1; [1]) turn out when `Nc1cc(-c2nnc(N3CCC(C4c5c(F)cccc5-c5cncn54)CC3)s2)ccn1` (centres unmarked) [Example 36, 4-(5-(4-(6-fluoro-5H-imidazo[5,1-a]isoindol-5-yl)piperidin-1-yl)-1,3,4-thiadiazol-2-yl)pyridin-2-amine trifluoroacetate] was run?
Answer: 10.6 nM

Question: What about the IC50 (human TDO; [2]) of the same compound?
Answer: 104 nM

Question: What about the IC50 (IDO in HeLa cells; [3]) of the same compound?
Answer: 27.8 nM

Question: Which results are given for `CS(=O)(=O)N1CCC(Oc2ccc(N3CCC(C4c5c(F)cccc5-c5cncn54)CC3)cc2)CC1` (centres unmarked) [Example 39, 6-fluoro-5-(1-(4-((1-(methylsulfonyl)piperidin-4-yl)oxy)phenyl)piperidin-4-yl)-5H-imidazo[5,1-a]isoindole]?
Answer: IC50 (human IDO1; [1]): 15.5 nM; IC50 (human TDO; [2]): 243 nM; IC50 (IDO in HeLa cells; [3]): 198 nM

Question: Which IC50 (human IDO1; [1]) does the source give for `N#Cc1ccc(N2CCC(C3c4c(F)cccc4-c4cncn43)CC2)cc1F` (centres unmarked) [Example 45, 2-fluoro-4-(4-(6-fluoro-5H-imidazo[5,1-a]isoindol-5-yl)piperidin-1-yl)benzonitrile] here?
Answer: 8.84 nM

Question: And the IC50 (human TDO; [2])?
Answer: 234 nM

Question: And the IC50 (IDO in HeLa cells; [3])?
Answer: 231 nM

Question: Which IC50 (human IDO1) does the source give for `Fc1ccc(N2CCC(C3c4c(F)cccc4-c4cncn43)CC2)cc1F` (centres unmarked) [Example 46, 5-(1-(3,4-difluorophenyl)piperidin-4-yl)-6-fluoro-5H-imidazo[5,1-a]isoindole] here?
Answer: 6.68 nM

Question: What about the IC50 (human TDO) of the same compound?
Answer: 68.9 nM

Question: What about the IC50 (IDO in HeLa cells; [3]) of the same compound?
Answer: 69.1 nM
